Assay results taken from ChEMBL document CHEMBL6083221, “11-Azaartemisinin derivatives bearing halogenated aromatic moieties: Potent anticancer agents with high tumor selectivity” (Bioorg Med Chem Lett, 2024).

How the values were obtained:
HepG2 = experiment: Antiproliferative activity against human HepG2 cells; format: functional, cell-based
KB = experiment: Antiproliferative activity against human KB cells; format: functional, cell-based
A549 = experiment: Antiproliferative activity against human A549 cells; format: functional, cell-based
[1] = Cytotoxicity against human HEK293 cells; format: toxicity, cell-based
[2] = Selectivity ratio of IC50 for human HEK293 cells to IC50 for human HepG2 cells; format: toxicity; conditions: HEK293 cells versus HepG2 cells, read-out: Ratio IC50
[3] = Selectivity ratio of IC50 for human HEK293 cells to IC50 for human KB cells; format: toxicity; conditions: HEK293 cells versus KB cells, read-out: Ratio IC50
[4] = Selectivity ratio of IC50 for human HEK293 cells to IC50 for human A549 cells; format: toxicity; conditions: HEK293 cells versus A549 cells, read-out: Ratio IC50

SMILES	IC50 (HepG2) [µM]	IC50 (KB) [µM]	IC50 (A549) [µM]	IC50 [1] [µM]	selectivity ratio [2]	selectivity ratio [3]	selectivity ratio [4]
C[C@@H]1CC[C@H]2[C@@H](C)C(=O)N(Cc3cn(-c4ccc(Br)cc4)nn3)[C@@H]3O[C@@]4(C)CC[C@@H]1[C@@]23OO4	34.9	26.4	45.9				
C[C@@H]1CC[C@H]2[C@@H](C)C(=O)N(Cc3cn(-c4cccc(F)c4)nn3)[C@@H]3O[C@@]4(C)CC[C@@H]1[C@@]23OO4	> 280	> 280	> 280				
C[C@@H]1CC[C@H]2[C@@H](C)C(=O)N(Cc3cn(-c4cccc(Br)c4)nn3)[C@@H]3O[C@@]4(C)CC[C@@H]1[C@@]23OO4	42.5	7.7	15.5	> 247	6	32	16
C[C@@H]1CC[C@H]2[C@@H](C)C(=O)N(Cc3cn(-c4ccc(I)cc4)nn3)[C@@H]3O[C@@]4(C)CC[C@@H]1[C@@]23OO4	31.3	10.3	9.2	12.4			
C[C@@H]1CC[C@H]2[C@@H](C)C(=O)N(Cc3cn(-c4ccccc4Br)nn3)[C@@H]3O[C@@]4(C)CC[C@@H]1[C@@]23OO4	42.5	32.3	32.9				
C[C@@H]1CC[C@H]2[C@@H](C)C(=O)N(Cc3cn(-c4cccc(Cl)c4)nn3)[C@@H]3O[C@@]4(C)CC[C@@H]1[C@@]23OO4	215	235	151				
C[C@@H]1CC[C@H]2[C@@H](C)C(=O)N(Cc3cn(-c4cccc(I)c4)nn3)[C@@H]3O[C@@]4(C)CC[C@@H]1[C@@]23OO4	9.4	10.6	135	46.3	5	4	
C[C@@H]1CC[C@H]2[C@@H](C)C(=O)N(Cc3cn(-c4ccccc4I)nn3)[C@@H]3O[C@@]4(C)CC[C@@H]1[C@@]23OO4	49.3	34.1	27.7				
Cc1c2ccncc2c(C)c2c1[nH]c1ccccc12 [ELLIPTECINE]	1.7	1.7	1.7	6.3			
